Test results from PubChem BioAssay (NCI).
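A five-concentration, 48-hour dose response in 96-well plates underlies each endpoint, interpolated linearly between surrounding concentrations. Abbreviation: GI50, concentration required for 50% inhibition of growth. At the TGI there is no net growth.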

Tests used:
Experiment in all cases: inhibition of tumour cell growth, NCI panel, 48 h; in the data active = GI50 below about 0.43 µM; inactive = the rest
CCRF-CEM leukemia = test system: CCRF-CEM leukemia
NCI-H23 lung = test system: NCI-H23 lung
OVCAR-4 ovarian = test system: OVCAR-4 ovarian
HCT-116 colon = test system: HCT-116 colon
HS 578T breast = test system: HS 578T breast
KM12 colon = test system: KM12 colon
SR leukemia = test system: SR leukemia
ACHN renal = test system: ACHN renal
MOLT-4 leukemia = test system: MOLT-4 leukemia
A498 renal = test system: A498 renal
SN12C renal = test system: SN12C renal
SW-620 colon = test system: SW-620 colon
SF-268 CNS = test system: SF-268 CNS
PC-3 prostate = test system: PC-3 prostate
SNB-75 CNS = test system: SNB-75 CNS
CAKI-1 renal = test system: CAKI-1 renal
UACC-62 melanoma = test system: UACC-62 melanoma
SK-MEL-2 melanoma = test system: SK-MEL-2 melanoma
LOX IMVI melanoma = test system: LOX IMVI melanoma
U251 CNS = test system: U251 CNS
SNB-19 CNS = test system: SNB-19 CNS
OVCAR-5 ovarian = test system: OVCAR-5 ovarian
HL-60(TB) leukemia = test system: HL-60(TB) leukemia
SK-MEL-28 melanoma = test system: SK-MEL-28 melanoma
HT29 colon = test system: HT29 colon
EKVX NSCLC = test system: EKVX NSCLC
DU-145 prostate = test system: DU-145 prostate
RPMI-8226 leukemia = test system: RPMI-8226 leukemia
MDA-MB-435 = test system: MDA-MB-435
MDA-MB-231 breast = test system: MDA-MB-231 breast
NCI-H522 lung = test system: NCI-H522 lung
K-562 leukemia = test system: K-562 leukemia
UO-31 renal = test system: UO-31 renal
HCC-2998 colon = test system: HCC-2998 colon
MCF7 breast = test system: MCF7 breast
NCI-H460 lung = test system: NCI-H460 lung
SK-MEL-5 melanoma = test system: SK-MEL-5 melanoma
SF-539 CNS = test system: SF-539 CNS
TK-10 renal = test system: TK-10 renal
BT-549 breast = test system: BT-549 breast
NCI/ADR-RES ovarian = test system: NCI/ADR-RES ovarian
HCT-15 colon = test system: HCT-15 colon
T-47D breast = test system: T-47D breast
A549 NSCLC = test system: A549 NSCLC
RXF 393 renal = test system: RXF 393 renal
OVCAR-8 ovarian = test system: OVCAR-8 ovarian
MALME-3M melanoma = test system: MALME-3M melanoma
HOP-92 NSCLC = test system: HOP-92 NSCLC
SK-OV-3 ovarian = test system: SK-OV-3 ovarian
SF-295 CNS = test system: SF-295 CNS
786-0 renal = test system: 786-0 renal
IGROV1 ovarian = test system: IGROV1 ovarian
NCI-H226 lung = test system: NCI-H226 lung
UACC-257 melanoma = test system: UACC-257 melanoma
COLO 205 colon = test system: COLO 205 colon
OVCAR-3 ovarian = test system: OVCAR-3 ovarian
M14 melanoma = test system: M14 melanoma
HOP-62 NSCLC = test system: HOP-62 NSCLC

CN(C)c1ccc(/C=C\c2cccc[n+]2C)cc1
93.2 µM: TGI (MDA-MB-231 breast)
2.81 µM: TGI (COLO 205 colon)
32.8 µM: TGI (HOP-92 NSCLC)
13.4 µM: TGI (KM12 colon)
81.7 µM: TGI (SK-MEL-28 melanoma)
inactive: GI50 (CCRF-CEM leukemia) 4.54 µM | GI50 (NCI-H23 lung) 4.69 µM | GI50 (OVCAR-4 ovarian) 4.28 µM | GI50 (HCT-116 colon) 4.16 µM | GI50 (HS 578T breast) 16.2 µM | GI50 (KM12 colon) 0.821 µM | GI50 (SR leukemia) 24.8 µM | GI50 (ACHN renal) 43 µM | GI50 (MOLT-4 leukemia) 38.4 µM | GI50 (A498 renal) 2.53 µM | GI50 (SN12C renal) 17 µM | GI50 (SW-620 colon) 3.57 µM | GI50 (SF-268 CNS) 5.52 µM | GI50 (PC-3 prostate) 3.04 µM | GI50 (SNB-75 CNS) 6.26 µM | GI50 (CAKI-1 renal) 3.8 µM | GI50 (UACC-62 melanoma) 19.8 µM | GI50 (SK-MEL-2 melanoma) 20.4 µM | GI50 (LOX IMVI melanoma) 5.31 µM | GI50 (U251 CNS) 4.89 µM | GI50 (SNB-19 CNS) 4.83 µM | GI50 (OVCAR-5 ovarian) 19.2 µM | GI50 (HL-60(TB) leukemia) 3.09 µM | GI50 (SK-MEL-28 melanoma) 14.8 µM | GI50 (HT29 colon) 5.01 µM | GI50 (EKVX NSCLC) 0.489 µM | GI50 (DU-145 prostate) 20.6 µM | GI50 (RPMI-8226 leukemia) 4.44 µM | GI50 (MDA-MB-435) 4.16 µM | GI50 (MDA-MB-231 breast) 13.7 µM | GI50 (NCI-H522 lung) 10.2 µM | GI50 (K-562 leukemia) 2.22 µM | GI50 (UO-31 renal) 6.43 µM | GI50 (HCC-2998 colon) 3.68 µM | GI50 (MCF7 breast) 4.52 µM | GI50 (NCI-H460 lung) 15.2 µM | GI50 (SK-MEL-5 melanoma) 2.99 µM | GI50 (SF-539 CNS) 12.3 µM | GI50 (TK-10 renal) 41.1 µM | GI50 (BT-549 breast) 2.76 µM | GI50 (NCI/ADR-RES ovarian) > 100 µM | GI50 (HCT-15 colon) 92.8 µM | GI50 (T-47D breast) 4.37 µM | GI50 (A549 NSCLC) 1.73 µM | GI50 (RXF 393 renal) 18.2 µM | GI50 (OVCAR-8 ovarian) 4.13 µM | GI50 (MALME-3M melanoma) 15.6 µM | GI50 (HOP-92 NSCLC) 4.85 µM | GI50 (SK-OV-3 ovarian) 4.85 µM | GI50 (SF-295 CNS) 4.33 µM | GI50 (786-0 renal) 16.3 µM | GI50 (IGROV1 ovarian) 8.66 µM | GI50 (NCI-H226 lung) 12.2 µM | GI50 (UACC-257 melanoma) 7.81 µM | GI50 (COLO 205 colon) 1.22 µM | GI50 (OVCAR-3 ovarian) 3.3 µM | GI50 (M14 melanoma) 10.7 µM | GI50 (HOP-62 NSCLC) 5.83 µM
> 100 µM: TGI (CCRF-CEM leukemia) | TGI (NCI-H23 lung) | TGI (HCT-116 colon) | TGI (HS 578T breast) | TGI (SR leukemia) | TGI (ACHN renal) | TGI (MOLT-4 leukemia) | TGI (SN12C renal) | TGI (SW-620 colon) | TGI (SF-268 CNS) | TGI (PC-3 prostate) | TGI (CAKI-1 renal) | TGI (SK-MEL-2 melanoma) | TGI (U251 CNS) | TGI (SNB-19 CNS) | TGI (OVCAR-5 ovarian) | TGI (HL-60(TB) leukemia) | TGI (HT29 colon) | TGI (EKVX NSCLC) | TGI (DU-145 prostate) | TGI (MDA-MB-435) | TGI (NCI-H522 lung) | TGI (K-562 leukemia) | TGI (UO-31 renal) | TGI (MCF7 breast) | TGI (NCI-H460 lung) | TGI (SF-539 CNS) | TGI (TK-10 renal) | TGI (NCI/ADR-RES ovarian) | TGI (HCT-15 colon) | TGI (A549 NSCLC) | TGI (RXF 393 renal) | TGI (OVCAR-8 ovarian) | TGI (MALME-3M melanoma) | TGI (SF-295 CNS) | TGI (786-0 renal) | TGI (IGROV1 ovarian) | TGI (NCI-H226 lung) | TGI (UACC-257 melanoma) | TGI (M14 melanoma)
58 µM: TGI (UACC-62 melanoma)
52 µM: TGI (SK-OV-3 ovarian)
45.2 µM: TGI (RPMI-8226 leukemia)
11.6 µM: TGI (SK-MEL-5 melanoma)
49.5 µM: TGI (SNB-75 CNS)
79.8 µM: TGI (BT-549 breast)
36.6 µM: TGI (LOX IMVI melanoma)
62.5 µM: TGI (OVCAR-4 ovarian)
90.7 µM: TGI (HOP-62 NSCLC)
33.7 µM: TGI (A498 renal)
65.5 µM: TGI (T-47D breast)
39.2 µM: TGI (HCC-2998 colon)
30.1 µM: TGI (OVCAR-3 ovarian)
